According to patent publication US9422254B2, “Methoxyacrylate-based fungicide and methods for preparing and using the same” (priority 2008, dated 2016):

Key:
[1] = system: Sphaerotheca uliginea; assay: Fungicidal activity on potted cucumber, powdery mildew; type: in vivo
Experimental: 1. Fungicidal Activity Assay on Potted Plants at Room Temperature
Take cucumber downy mildew and powdery mildew as examples, the assay were carried out as follows:
2) Sphaerotheca uliginea: Pathogen of Cucumber Powdery Mildew
A cucumber seedling having uniform growth status and in the true leaf stage was collected, sprayed with the compound of Formula (I), and dried in the shade for 24 hrs. Fresh spore was collected from cucumber leaves infected by Sphaerotheca uliginea, filtered with a double-layer gauze, and prepared into a suspension (1.0×10^5 cells/mL). The suspension was sprayed to the dried cucumber seedling. Subsequently, the inoculated seedling was dried naturally and cultured under light in a thermostatic chamber (21-23° C.). 7-8 days later, compared with the blank control, the disease of the cucumber seedlings was graded. Based on the resultant disease index, the efficacy was calculated.
The grading standard follows “Guidelines on efficacy evaluation of pesticides”, and the efficacy is calculated on the basis of the disease index.

[2] = system: Rhizoctonia solani (rice sheath blight); assay: microbe, parasite or virus in culture; type: cell-based; details: read-out: Inhibition rate (%)
[3] = system: Sclerotinia sclerotirum; assay: microbe, parasite or virus in culture; type: cell-based; details: read-out: Inhibition rate (%)
[4] = system: Colletotrichum lagenarium; assay: microbe, parasite or virus in culture; type: cell-based; details: Colletotrichum orbiculare, read-out: Inhibition rate (%)
[5] = system: Phytophthora capsici; assay: microbe, parasite or virus in culture; type: cell-based; details: read-out: Inhibition rate (%)
[6] = system: Botryosphaeria berengeriana; assay: microbe, parasite or virus in culture; type: cell-based; details: read-out: Inhibition rate (%)
[7] = system: Helminthosporium torulosum; assay: microbe, parasite or virus in culture; type: cell-based; details: Corynespora torulosa, read-out: Inhibition rate (%)
[8] = system: Fusarium oxysporum; assay: microbe, parasite or virus in culture; type: cell-based; details: read-out: Inhibition rate (%)
[9] = system: Ustilaginoidea virens; assay: microbe, parasite or virus in culture; type: cell-based
[10] = system: rabbit's skin; assay: Skin stimulation test; type: in vivo
Experimental: (§1) The toxicological indexes of the compound were tested following the standard GB15670-1995 “Toxicological test methods of pesticides for registration” by Tongji Medical College, Huazhong University of Science and Technology.

[11] = system: guinea pig skin; assay: Skin sensitization test; type: in vivo
Experimental: as §1

[12] = system: mice spermatogonial; assay: Chromosome aberration test of mice spermatogonial; type: in vivo
Experimental: as §1

[13] = target: succinate-cytochrome C oxidase (SCO) (Sus scrofa, UniProt P24964); assay: Enzyme activity test, SCO; type: biochemical; details: azoxystrobin as control agent
Sequence of succinate-cytochrome C oxidase (SCO) (P24964 whole entry): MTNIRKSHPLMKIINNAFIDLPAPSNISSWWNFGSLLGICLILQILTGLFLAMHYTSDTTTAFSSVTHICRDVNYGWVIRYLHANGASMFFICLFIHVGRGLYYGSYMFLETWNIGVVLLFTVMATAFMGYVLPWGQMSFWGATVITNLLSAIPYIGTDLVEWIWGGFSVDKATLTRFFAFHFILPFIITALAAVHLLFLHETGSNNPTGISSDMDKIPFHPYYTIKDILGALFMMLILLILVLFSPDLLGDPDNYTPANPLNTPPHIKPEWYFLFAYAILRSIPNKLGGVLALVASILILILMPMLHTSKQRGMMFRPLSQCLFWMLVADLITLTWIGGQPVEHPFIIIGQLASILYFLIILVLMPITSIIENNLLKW
Experimental: (§2) Take NADH oxidase (NOX), succinate-cytochrome C oxidase (SCO), and Complex III as target enzymes, the inhibitory activity of the compound of Formula (I) was tested.
^a NOX is generally used to detect an inhibitor of Complex I and Complex III; SCO is generally used to detect an inhibitor of Complex II and Complex III. Thus, an inhibitor of Complex III should have inhibitory activity on the two enzymes.

[14] = target: T1, cytochrome bc1 complex of pig heart (Sus scrofa, UniProt P24964); assay: Enzyme activity test, Complex III; type: biochemical
T1 construct: The test target is cytochrome bc1 complex of pig heart; from tissue; host or cells: pig heart
T1 sequence (P24964 whole entry, one chain of several): as the sequence (P24964 whole entry) above
Experimental: as §2
^b The test target is cytochrome bc1 complex of pig heart.

[15] = system: melon powdery mildew; assay: Field efficacy trial of emulsifier concentrate 1, melon powdery mildew; type: in vivo
Experimental: To a beaker (1000 mL), 50 g (100% basis) of the compound of Formula (I), 150 g of DMF, and 50 g of acetone were added and stirred for dissolution. To the solution, 25 g of pesticide emulsifier No. 500 and 50 g of Tween 80, 20 g of epoxidized soybean oil, and […] of toluene were added. Thus, the emulsifier concentrate 1 having 5 wt. % of the compound of Formula (I) was obtained and further packed.
On the basis of indoor activity evaluation, field efficacy trials of the compound of Formula (I) on cucumber downy mildew, cucumber powdery mildew, and melon powdery mildew were conducted.

[16] = system: Cucumber gray mold (SC504002); assay: In vivo micro-screening assay
Experimental: In Vivo Micro-Screening Assay
(§3) To further study the fungicidal spectrum of the compound of Formula (I), indoor in vivo micro-screening assay were carried out on cucumber gray mold, cucumber scab, cucumber sclerotinia rot, cucumber brown spot, pepper phytophthora blight, and rice sheath blight.
(§4) Medicament to be tested and medicament of control groups were prepared as needed in a sunny morning. Cucumber gray mold, cucumber scab, cucumber brown spot, cucumber sclerotinia rot, and rice sheath blight were medicated by spray, and after air dry, pathogens of cucumber scab and of cucumber brown spot were inoculated through spraying spore suspension respectively, pathogens of cucumber gray mold, of cucumber sclerotinia rot, and of rice sheath blight were inoculated through lawn foliage. Pepper phytophthora blight was medicated and inoculated by root-irrigation. Subsequently, all seedlings were cultured in wet environment.
(§5) After the disease of control groups were serious, spot area, disease index, and the diseased seedling rate were investigated to calculate the efficacy. Cucumber scab, cucumber brown spot, and pepper phytophthora blight were investigated by grading method. The spot extension area of cucumber gray mold and of rice sheath blight was investigated. The diseased seedling rate of cucumber sclerotinia rot was investigated. Disease index=Σ(amount of infected diseased leaves in a grade×relative value of the grade)×100/(total amount of leaves×9); Diseased seedling rate (%)=(total amount of seedlings−amount of diseased seedlings)/total amount of seedlings×100% Prevention and treatment effect (%)=(disease of control group−disease of experiment group)/disease of control group×100%

[17] = system: Cucumber gray mold (Q503001); assay: In vivo micro-screening assay
Experimental: In Vivo Micro-Screening Assay
as §3, §4, §5

[18] = 12.5 mg/L, 7th day after first administration
[19] = 12.5 mg/L, 7th day after second administration
[20] = 12.5 mg/L, 14th day after second administration
[21] = 25 mg/L, 7th day after first administration
[22] = 25 mg/L, 7th day after second administration
[23] = 25 mg/L, 14th day after second administration
[24] = 50 mg/L, 7th day after first administration
[25] = 50 mg/L, 7th day after second administration
[26] = 50 mg/L, 14th day after second administration
[27] = 100 mg/L, 7th day after first administration
[28] = 100 mg/L, 7th day after second administration
[29] = 100 mg/L, 14th day after second administration

With CO/C=C(/C(=O)OC)c1ccccc1CSc1nc2cc(OC)ccc2s1 [Compound of Formula (I), (E)-methyl 3-methoxy-2-(2-((5-methoxy-benzothiazol-2-ylthio)methyl)phenyl)acrylate] the “Efficacy (%)” value ([1]; 3.125 mg/L, secondary screening) was 85.24%, the “Efficacy (%)” value ([1]; 6.25 mg/L, secondary screening) was 97.22% and the “Efficacy (%)” value ([1]; 12.5 mg/L, Table 1) was 97.22%. For the same compound, the “Efficacy (%)” value ([1]; 12.5 mg/L, secondary screening) was 98.50%, the “Efficacy (%)” value ([1]; 25 mg/L, Table 1) was 100% and the “Efficacy (%)” value ([1]; 25 mg/L, secondary screening) was 100%. The “Efficacy (%)” value ([1]; 50 mg/L, Table 1) was 100%, the “Efficacy (%)” value ([1]; 50 mg/L, secondary screening) was 100% and the “Efficacy (%)” value ([1]; 100 mg/L, Table 1) was 100%. The “Efficacy (%)” value ([1]; 200 mg/L, Table 1) was 100%, the “preventive effect” value ([1]; powdery mildew) was “good preventive effect” and the EC50 ([1]; secondary screening) was 0.96 µg/mL. The EC90 ([1]; secondary screening) was 3.87 µg/mL, the inhibition at 0.3 µg/mL ([2]; 0.3 mg/L) was 42.7% and the inhibition at 3 µg/mL ([2]; 3 mg/L) was 62.1%. The inhibition at 30 µg/mL ([2]; 30 mg/L) was 68.9%, the inhibition at 0.3 µg/mL ([3]; 0.3 mg/L) was 50.8% and the inhibition at 3 µg/mL ([3]; 3 mg/L) was 61%. The inhibition at 30 µg/mL ([3]; 30 mg/L) was 80%, the inhibition at 0.3 µg/mL ([4]; 0.3 mg/L) was 42% and the inhibition at 3 µg/mL ([4]; 3 mg/L) was 44.2%. It also gave an inhibition at 30 µg/mL ([4]; 30 mg/L) of 50.7%, an inhibition at 0.3 µg/mL ([5]; 0.3 mg/L) of 0% and an inhibition at 3 µg/mL ([5]; 3 mg/L) of 23.1%. It also gave an inhibition at 30 µg/mL ([5]; 30 mg/L) of 28.9%, an inhibition at 0.3 µg/mL ([6]; 0.3 mg/L) of 44.1% and an inhibition at 3 µg/mL ([6]; 3 mg/L) of 49.6%. The inhibition at 30 µg/mL ([6]; 30 mg/L) was 63.6%, the inhibition at 0.3 µg/mL ([7]; 0.3 mg/L) was 11.3% and the inhibition at 3 µg/mL ([7]; 3 mg/L) was 18.4%. For the same compound, the inhibition at 30 µg/mL ([7]; 30 mg/L) was 21.4%, the inhibition at 0.3 µg/mL ([8]; 0.3 mg/L) was 29.4% and the inhibition at 3 µg/mL ([8]; 3 mg/L) was 36.1%. The inhibition at 30 µg/mL ([8]; 30 mg/L) was 43.7%, the “in vitro effect” value [9] was “particularly effective” and the inhibition at 0.3 µg/mL ([9]; Ustilaginoidea virens, 0.3 mg/L, read-out: Inhibition rate (%)) was 74.8%. For the same compound, the inhibition at 3 µg/mL ([9]; Ustilaginoidea virens, 3 mg/L, read-out: Inhibition rate (%)) was 100%, the inhibition at 30 µg/mL ([9]; Ustilaginoidea virens, 30 mg/L, read-out: Inhibition rate (%)) was 100% and the Skin stimulation [10] was “No stimulation on rabbit's skin”. The Skin sensitization [11] was “Weak allergen (grade I) on guinea”, the “Chromosome aberration test of mice spermatogonial” value [12] was “Negative” and the “inhibitory activity on SCO compared with azoxystrobin” value [13] was “much higher inhibitory activity”. The IC50 [14] was 4 nM, the “inhibitory activity on Complex III compared with azoxystrobin” value ([14]; azoxystrobin as control agent) was “much higher inhibitory activity” and the Disease index [15, 18] was 8.80. The “Efficacy (%)” value [15, 18] was 27.16%, the Disease index [15, 19] was 13.44 and the “Efficacy (%)” value [15, 19] was 61.65%. For the same compound, the Disease index [15, 20] was 40.33, the “Efficacy (%)” value [15, 20] was 29.55% and the Disease index [15, 21] was 7.11. The “Efficacy (%)” value [15, 21] was 34.38%, the Disease index [15, 22] was 13.63 and the “Efficacy (%)” value [15, 22] was 67.15%. For the same compound, the Disease index [15, 23] was 31.50, the “Efficacy (%)” value [15, 23] was 47.00% and the Disease index [15, 24] was 7.92. For the same compound, the “Efficacy (%)” value [15, 24] was 35.77%, the Disease index [15, 25] was 10.88 and the “Efficacy (%)” value [15, 25] was 75.54%. For the same compound, the Disease index [15, 26] was 30.42, the “Efficacy (%)” value [15, 26] was 54.57% and the Disease index [15, 27] was 6.29. The “Efficacy (%)” value [15, 27] was 39.15%, the Disease index [15, 28] was 4.52 and the “Efficacy (%)” value [15, 28] was 86.22%. For the same compound, the Disease index [15, 29] was 19.45, the “Efficacy (%)” value [15, 29] was 63.47% and the “Efficacy (%)” value ([16]; 100 mg/L) was 88.71%. For the same compound, the “Spot area (mm^2)” value ([16]; 100 mg/L) was 6.82 mm^2, the “Efficacy (%)” value ([16]; 500 mg/L) was 90.67% and the “Spot area (mm^2)” value ([16]; 500 mg/L) was 5.64 mm^2. For the same compound, the “Efficacy (%)” value ([17]; 100 mg/L) was 93.69%, the “Spot area (mm^2)” value ([17]; 100 mg/L) was 7.78 mm^2 and the “Efficacy (%)” value ([17]; 500 mg/L) was 97.71%. For the same compound, the “Spot area (mm^2)” value ([17]; 500 mg/L) was 2.82 mm^2.
